Source: US12280026B2, “Use of repirinast in the prophylaxis or treatment of renal fibrosis or kidney disease” (ALGERNON PHARMACEUTICALS INC., priority 2018, dated 2025)
Entries after “also recorded” stand apart in the source; their conditions may differ. Marks after values point to notes of the source that are not given here.

How the values were obtained:
[1] = test system: C57BL/6 mice with UUO surgical ligation; experiment: Example 2: UUO mice, renal function evaluation (plasma BUN, creatinine); format: in vivo
Description: (§1) In this example, healthy young female C57BL/6 mice were used for the study. At the commencement of the study, mice were between 9-12 weeks of age, weighing 23-25 g. All the mice were obtained from Charles River Laboratories.
(§2) The mice were maintained in a controlled environment with a temp 70-72° F., humidity 30-70%, with a photo cycle of 12 hours of light and 12 hours of dark. They were provided with Harlan Teklad 2018 standard maintenance mouse chow diet and drinking water ad libitium.
(§3) After five days of acclimatization, the mice were grouped according to their body weight. There were ten groups of ten mice each. Nine groups of ten mice each underwent UUO as described above and the other group of ten mice underwent a sham procedure to serve as a no-surgery control.
(§4) Following surgery, the mice were divided into 10 individual study groups of 10 mice each and, following post-surgical recovery, administered a once-daily oral treatment for 14 days. The mice in 8 of the 10 study groups had all received the UUO surgical ligation and were treated individually with a distinct pharmacologic compound as set out in Table 6. The mice in 2 of the 10 study groups were treated individually with a pharmaceutically acceptable vehicle with no active ingredient. The pharmaceutically acceptable vehicle in all groups was 0.5% carboxymethyl cellulose (CMC). All mice were sacrificed with CO2 on post-surgical day 15.
(§5) The dose selected for the animal studies was determined by taking the maximum known human daily dose, dividing by the average weight of an adult (˜60-70 kg) to get a human mg/kg dose. That number was multiplied by 12 to convert to a mouse dose based on conventional dosing tables. See Nair and Jacob, J Basic Clin Pharm March 2016-May 2016, 7(2):27-31.
Serum collection: A blood sample was then collected from all mice and plasma analyzed for urea nitrogen and creatinine. Plasma was stored at −80° C. for possible future analysis.
(§6) The data are presented as the mean obtained from Microsoft Excel or GraphPad Prism version 5.00 for Windows (GraphPad Software, San Diego California USA). Data were analyzed using two-way ANOVA using Bonferroni and Tamhane post-tests. Differences between groups were considered significant at p<0.05.
Renal Function Evaluation: Renal function and disease progression was evaluated by BUN (blood urea nitrogen) as previously described. The BUN of each study group consisted of the BUN average of all mice in each study group.

[2] = test system: C57BL/6 mice with UUO surgical ligation; experiment: Example 2: UUO mice, kidney weight evaluation; format: in vivo; details: group mean, UUO, female C57BL/6 mice, PO QD days 1-14, mg/kg: Telmisartan 3, Bemithyl 200, Repirinast 30, Telmisartan+Bemithyl 3+200, Telmisartan+Repirinast 3+30, Cenicriviroc 40, Bromantane 40
Description: as §1, §2, §3, §4, §5
Kidney weight: The UUO was then examined in situ to ensure that the surgical ligation ties remained patent. Both the ligated (UUO) and non-ligated kidneys were removed for analysis. Weights of both kidneys were measured using a laboratory balance.
as §6
Kidney Weight Evaluation: Kidney weight, which indicates functional and pathological changes in the kidney, was evaluated by measuring the weight of both the ligated (UUO) and non-ligated kidneys as previously described. The ligated and non-ligated kidney weights of each study group consisted of the respective kidney weight averages of all mice in each study group.

[3] = test system: C57BL/6 mice with UUO surgical ligation; experiment: Example 2: UUO mice, renal fibrosis evaluation (Sirius Red histology score); format: in vivo
Description: as §1, §2, §3, §4, §5
Histopathology: Formalin-fixed kidney cross-section samples were subjected histopathological scoring with Sirius Red staining, and imaged at a magnification of ×20, using standard techniques. All three sections were stained and evaluated. The analysis was performed by a board-certified veterinarian pathologist. The presence of interstitial damage and severity score was assessed according to the following criteria: 0=normal; 1=light; 2=moderate; 3=severe.
as §6
Renal Fibrosis Evaluation: Renal fibrosis and interstitial damage was evaluated by histochemical staining of renal cross-sections with Sirius Red as previously described. The Histology Score of each study group consisted of the histology score average of all mice in each study group.

[4] = Example 2: UUO mice, mean body weight change following surgery; format: in vivo, C57BL/6 mice; details: UUO, female C57BL/6 mice, PO QD days 1-14, mg/kg: Telmisartan 3, Bemithyl 200, Repirinast 30, Telmisartan+Bemithyl 3+200, Telmisartan+Repirinast 3+30, Cenicriviroc 40, Bromantane 40
Description: as §1, §2, §3, §4, §5
Body weight: The body weights were measured on days 1, 4, 7, 10 and 14 using a laboratory balance.
Body weights were measured on post-surgical days 1, 4, 7, 10 and 14 as previously described. The mean body weight change of each study group was calculated using the body weight average of all mice in each study group.

[5] = Example 2, mg/kg PO QD: Telmisartan 3, Bemithyl 200, Repirinast 30, Telmisartan+Bemithyl 3+200, Telmisartan+Repirinast 3+30, Cenicriviroc 40, Bromantane 40

With `CCCc1nc2c(C)cc(-c3nc4ccccc4n3C)cc2n1Cc1ccc(-c2ccccc2C(=O)O)cc1` [Telmisartan, 2-(4-{[4-Methyl-6-(1-methyl-1H-1,3-benzodiazol-2-yl)-2-propyl-1H-1,3-benzodiazol-1-yl]methyl}phenyl)benzoic acid] the “Level of BUN compared to vehicle or other agents, in words” value [1, 5] was “did not reduce levels of BUN; also recorded: did not show significant reductions”, the BUN ([1]; plasma at sacrifice day 15, group mean, * significant vs vehicle Bonferroni, # Tamhane (p<0.05), UUO, female C57BL/6 mice, PO QD days 1-14, mg/kg: Telmisartan 3, Bemithyl 200, Repirinast 30, Telmisartan+Bemithyl 3+200, Telmisartan+Repirinast 3+30, Cenicriviroc 40, Bromantane 40) was 23.5 mg/dL and the Creatinine ([1]; plasma at sacrifice day 15, group mean, UUO, female C57BL/6 mice, PO QD days 1-14, mg/kg: Telmisartan 3, Bemithyl 200, Repirinast 30, Telmisartan+Bemithyl 3+200, Telmisartan+Repirinast 3+30, Cenicriviroc 40, Bromantane 40) was 0.20 mg/dL. For the same compound, the “Drained Left Kidney (g)” value ([2]; ligated kidney drained) was 0.1853* g, the “Excised Left Kidney” value ([2]; ligated kidney) was 0.411 g and the “Right Kidney (g)” value ([2]; unligated kidney) was 0.1263* g. The “Level of kidney fibrosis / histology score compared to vehicle or other agents, in words” value [3, 5] was “statistically insignificant improvements; also recorded: did not show significant reductions”, the “Histology Score” value ([3]; Sirius Red, 0=normal, 1=light, 2=moderate, 3=severe, group mean, UUO, female C57BL/6 mice, PO QD days 1-14, mg/kg: Telmisartan 3, Bemithyl 200, Repirinast 30, Telmisartan+Bemithyl 3+200, Telmisartan+Repirinast 3+30, Cenicriviroc 40, Bromantane 40) was 1.62*# and the “Reduction of fibrosis (%) (versus vehicle)” value ([3]; from histology score, UUO, female C57BL/6 mice, PO QD days 1-14, mg/kg: Telmisartan 3, Bemithyl 200, Repirinast 30, Telmisartan+Bemithyl 3+200, Telmisartan+Repirinast 3+30, Cenicriviroc 40, Bromantane 40) was 33%. The “Mean Body Weight Change Following Surgery, Day 1” value ([4]; Day 1) was 0 g, the “Mean Body Weight Change Following Surgery, Day 4” value ([4]; Day 4) was -0.24 g and the “Mean Body Weight Change Following Surgery, Day 7” value ([4]; Day 7) was 0.39 g. For the same compound, the “Mean Body Weight Change Following Surgery, Day 10” value ([4]; Day 10) was 0.45 g and the “Mean Body Weight Change Following Surgery, Day 14” value ([4]; Day 14) was 0.58 g.
